According to patent US20220133842A1 (priority 2019, published 2022):
In brackets after ≈: the same amount, converted by molar mass. Several values for one entry are separate records, joined by “and”; a condition that tells them apart may be missing. Equal entries are not always repeated. Where two headings read alike, the source gives them in different places.

Legend:
[1] = tested on: Acinetobacter baumannii (CIP 110431); type: cell-based
[2] = tested on: Citrobacter farmeri (ATCC 51633); type: cell-based
[3] = tested on: Citrobacter rodentium (ATCC 51116); type: cell-based
[4] = tested on: Escherichia coli (ATCC 8739); type: cell-based
[5] = tested on: Klebsiella pneumoniae (DSMZ 26371); type: cell-based
[6] = tested on: Klebsiella variicola (DSM 15968); type: cell-based
[7] = tested on: Pseudomonas aeruginosa (CIP 107398); type: cell-based
[8] = tested on: Salmonella enterica (CIP 80.39); type: cell-based
[9] = tested on: Shigella flexneri (ATCC 12022); type: cell-based
[10] = tested on: Bacteroides thetaioataomicron (DSM 2255); assay: microbe, parasite or virus in culture; type: cell-based
[11] = tested on: Helicobacter pylori (ATCC 43504); assay: microbe, parasite or virus in culture; type: cell-based
[12] = tested on: Arthrobacter gandavensis (DSM 2447); type: cell-based
Bacillus cereus (DSM 31) = type: cell-based
[13] = tested on: Bacillus subtilis (DSM 347); type: cell-based
[14] = tested on: Lactococcus lactis (DSM 20481); type: cell-based
[15] = tested on: Listeria monocytogenes (DSM 20600); type: cell-based
[16] = tested on: Micrococcus luteus (DSM 20030); type: cell-based
[17] = tested on: Staphylococcus aureus MRSA USA300 (ATCC BAA-1717); type: cell-based
[18] = tested on: Staphylococcus aureus (ATCC 6538P); type: cell-based
[19] = tested on: Clostridium botulinum (DSM 1985); assay: microbe, parasite or virus in culture; type: cell-based
[20] = tested on: Clostridium coccoides (DSM 935); assay: microbe, parasite or virus in culture; type: cell-based
[21] = tested on: Clostridium difficile (DSM 1296); assay: microbe, parasite or virus in culture; type: cell-based
[22] = tested on: Clostridium nexile (DSM 1787); assay: microbe, parasite or virus in culture; type: cell-based
[23] = tested on: Clostridium propionicum (DSM 6251); assay: microbe, parasite or virus in culture; type: cell-based
[24] = tested on: Enterococcus faecalis (DSM 13591); assay: microbe, parasite or virus in culture; type: cell-based
[25] = tested on: Lactobacillus acidophilus (DSM 20079); assay: microbe, parasite or virus in culture; type: cell-based
[26] = tested on: Propionibacterium acnes (ATCC 6919); assay: microbe, parasite or virus in culture; type: cell-based
[27] = tested on: Streptococcus pyogenes (DSM 20565); assay: microbe, parasite or virus in culture; type: cell-based
[28] = tested on: Streptococcus thermophilus (ATCC LMD-9); assay: microbe, parasite or virus in culture; type: cell-based
[29] = tested on: Mycobacterium smegmatis (ATCC 700084); type: cell-based
[30] = tested on: Aspergillus flavus (DSM 1959); type: cell-based
[31] = tested on: Aspergillus niger (ATCC 9142); type: cell-based
[32] = tested on: Aspergillus ochraceus (DSM 824); type: cell-based
[33] = tested on: Candida albicans (DSM 10697); type: cell-based
[34] = tested on: Fusarium graminearum (DSM 1095); type: cell-based
[35] = tested on: Fusarium oxysporum (DSM 62316); type: cell-based
[36] = tested on: Fusarium verticillioides (DSM 62264); type: cell-based
[37] = tested on: Caco-2 cells (ATCC HTB-37); assay: cells; type: cell-based, human; settings: read-out: IC50 (concentration causing 50% cell death)
T84 cells (ATCC CCL-248) = assay: cells; type: cell-based, human; settings: read-out: IC50 (concentration causing 50% cell death)
IPEC-J2 cells [38] = assay: cells; type: cell-based, pig; settings: read-out: IC50 (concentration causing 50% cell death)
[39] = tested on: Clostridium perfringens (ATCC 13124)
[40] = tested on: human (Caco-2 and T84) and pig (IPEC-J2) intestinal cells
IPEC-J2 cells [41] = tested on: IPEC-J2 cells
[42] = tested on: human or porcine intestinal cells grown on inserts
[43] = tested on: Penicillium verrucosum (DSM 12639); type: cell-based
[44] = tested on: clinical strains of Clostridium perfringens isolated from human patients or animals; type: cell-based
[45] = tested on: Clostridium perfringens strain (ATCC 13124) and clinical strains of Clostridium perfringens; type: cell-based
[46] = tested on: Clostridium perfringens (ATCC13124); type: cell-based
[47] = tested on: Clostridium perfringens (ATCC 13124); type: cell-based
[48] = tested on: Clostridium perfringens (ATCC 13124); type: cell-based; remark: listed apart in the source
[49] = tested on: Clostridium perfringens (ATCC 13124); assay: microbe, parasite or virus in culture; settings: ATCC13124
[50] = Clostridium perfringens, ATCC13124

`CO/C1=C\C(C)=C\[C@@H](C)[C@@H](O)[C@@H](C)C/C(C)=C/C=C/[C@H](OC)[C@@H]([C@@H](C)[C@@H](O)[C@H](C)[C@@]2(O)C[C@@H](O)[C@H](C)[C@@H](C(C)C)O2)OC1=O` [Bafilomycin A1] was tested, and the MIC [1] was >100 µM, the MIC [2] was 100 µM (≈ 62.3 µg/mL) and the MIC [3] was >100 µM. The MIC [4] was 25 µM (≈ 15.6 µg/mL), the MIC [5] was 100 µM (≈ 62.3 µg/mL) and the MIC [6] was >100 µM. The MIC [7] was >100 µM, the MIC [8] was >100 µM and the MIC [9] was >100 µM. The MIC [10] was >100 µM, the MIC [11] was >100 µM and the MIC [12] was 3 µM (≈ 1.87 µg/mL). For the same molecule, the MIC (Bacillus cereus (DSM 31)) was 12.5 µM (≈ 7.79 µg/mL), the MIC [13] was 100 µM (≈ 62.3 µg/mL) and the MIC [14] was 50 µM (≈ 31.1 µg/mL). For the same molecule, the MIC [15] was 25 µM (≈ 15.6 µg/mL), the MIC [16] was 25 µM (≈ 15.6 µg/mL) and the MIC [17] was >100 µM. The MIC [18] was 12.5 µM (≈ 7.79 µg/mL), the MIC ([19]; Clostridium botulinum, DSM1985) was 6.25 µM (≈ 3.89 µg/mL) and the MIC [20] was >100 µM. The MIC [21] was >100 µM, the MIC [22] was 50 µM (≈ 31.1 µg/mL) and the MIC [23] was 25 µM (≈ 15.6 µg/mL). The MIC [24] was >100 µM, the MIC [25] was 33 µM (≈ 20.6 µg/mL) and the MIC [26] was 50 µM (≈ 31.1 µg/mL). The MIC [27] was 66 µM (≈ 41.1 µg/mL), the MIC [28] was 25 µM (≈ 15.6 µg/mL) and the MIC [29] was >100 µM. The MIC [30] was 3.25 µM (≈ 2.02 µg/mL), the MIC [31] was >100 µM and the MIC [32] was >100 µM. The MIC [33] was >100 µM, the MIC ([34]; Fusarium graminearum (DSM 1095)) was 6.25 µM (≈ 3.89 µg/mL) and the MIC [35] was >100 µM. The MIC [36] was 50 µM (≈ 31.1 µg/mL), the IC50 [37] was 11.8 µM and the IC50 (T84 cells (ATCC CCL-248)) was 9.9 µM. For the same molecule, the IC50 (IPEC-J2 cells [38]) was 1.8 µM, the MIC [39, 50] was 25 µM (≈ 15.6 µg/mL) and the “MIC (mg/L)” value [39, 50] was 15.5 mg/L (≈ 24.9 µM). For the same molecule, the “safety factor (IC50 in the toxicity test divided by MIC on Clostridium perfringens ATCC 13124)” value [40] was “less than 1”, the “toxicity to intestinal cells” value [40] was “toxic” and the transepithelial electrical resistance (Caco-2 cells) was 112 ohm.cm2. The transepithelial electrical resistance (T84 cells) was 118 ohm.cm2, the transepithelial electrical resistance (IPEC-J2 cells [41]) was 191 ohm.cm2 and the “decrease in transepithelial electrical resistance” value [42] was 61-75%.
With Destruxin B the MIC [1] was >100 µM, the MIC [2] was >100 µM and the MIC [3] was >100 µM. The MIC [4] was >100 µM, the MIC [5] was >100 µM and the MIC [6] was >100 µM. The MIC [7] was >100 µM, the MIC [8] was >100 µM and the MIC [9] was >100 µM. The MIC [10] was >100 µM, the MIC [11] was >100 µM and the MIC [12] was >100 µM. For the same molecule, the MIC (Bacillus cereus (DSM 31)) was >100 µM, the MIC [13] was >100 µM and the MIC [14] was >100 µM. The MIC [15] was >100 µM, the MIC [16] was >100 µM and the MIC [17] was >100 µM. The MIC [18] was >100 µM, the MIC [19] was >100 µM and the MIC [20] was >100 µM. The MIC [21] was >100 µM, the MIC [22] was >100 µM and the MIC [23] was >100 µM. The MIC [24] was >100 µM, the MIC [25] was >100 µM and the MIC [26] was >100 µM. For the same molecule, the MIC [27] was >100 µM, the MIC [28] was >100 µM and the MIC [29] was >100 µM. The MIC [30] was >100 µM, the MIC [31] was >100 µM and the MIC [32] was >100 µM. The MIC [33] was >100 µM, the MIC [34] was >100 µM and the MIC [35] was >100 µM. For the same molecule, the MIC [36] was >100 µM, the MIC [43] was >100 µM and the MIC [44] was 3 µM and 1.5 µM. For the same molecule, the “minimum bactericidal concentrations (BMC values)” value [45] was “identical to the MIC values”, the “change of MIC during exposure” value [46] was “do not change or change only slightly” and the IC50 [37] was > 100 µM. For the same molecule, the IC50 (T84 cells (ATCC CCL-248)) was > 100 µM, the IC50 (IPEC-J2 cells [38]) was > 100 µM and the “permeabilisation of the bacterial membrane” value [47] was “no permeabilisation”. The “morphological phenotype (mechanism of action)” value [48] was “hypercondensation of bacterial DNA”, the “MIC (mg/L)” value [39] was 1.78 mg/L and the “toxicity to intestinal cells” value [40] was “not toxic”.
With `CN(C)[C@@H]1C(O)=C(C(N)=O)C(=O)[C@@]2(O)C(O)=C3C(=O)c4c(O)cccc4[C@@](C)(O)[C@H]3C[C@@H]12` [Tetracycline] the MIC [49] was 11.7 µM and 5.2 µg/mL.
